From ChEMBL document CHEMBL1909046, “DrugMatrix in vitro pharmacology data” come the findings set out here.

Each structure is given as a SMILES string.

The IC50 is the concentration that gives 50% inhibition. What is called Ki is a dissociation constant, usually derived from enzyme kinetics or from competition with a known ligand.

The target of test [1] is T1, Alpha-1D adrenergic receptor (Homo sapiens, UniProt P25100). Further: in other assays of this panel Not Active means under 50% inhibition at 10 µM.
T1 sequence (P25100 whole entry): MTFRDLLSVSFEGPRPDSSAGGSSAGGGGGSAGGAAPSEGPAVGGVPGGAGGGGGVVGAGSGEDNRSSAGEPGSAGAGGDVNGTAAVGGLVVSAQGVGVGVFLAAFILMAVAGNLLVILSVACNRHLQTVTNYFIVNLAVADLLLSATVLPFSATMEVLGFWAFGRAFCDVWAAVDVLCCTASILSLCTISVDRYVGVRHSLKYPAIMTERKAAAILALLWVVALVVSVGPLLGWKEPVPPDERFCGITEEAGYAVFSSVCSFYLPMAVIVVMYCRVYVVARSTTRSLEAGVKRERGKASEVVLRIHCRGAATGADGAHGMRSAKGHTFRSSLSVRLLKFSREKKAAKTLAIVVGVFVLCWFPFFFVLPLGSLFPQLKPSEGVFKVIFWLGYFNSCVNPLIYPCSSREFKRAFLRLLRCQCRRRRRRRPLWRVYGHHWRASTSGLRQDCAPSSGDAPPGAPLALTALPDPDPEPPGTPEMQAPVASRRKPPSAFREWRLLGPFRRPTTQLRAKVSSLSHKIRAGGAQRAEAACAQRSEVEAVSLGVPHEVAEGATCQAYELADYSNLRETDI
Format: cell membranes, HEK293, Membrane. As to conditions: for Ki: read-out: Ki.

Test [2] in a line: DRUGMATRIX: Imidazoline I2, Central radioligand binding (ligand: [3H] Idazoxan). Format: cell membranes, Rattus norvegicus, Wistar, Cerebral cortex, Membrane. The settings on record: Not Active = under 50% inhibition at 10 µM.
Test [3] in a line: DRUGMATRIX: Glutamate, AMPA radioligand binding (ligand: [3H] AMPA). The settings on record: Not Active = under 50% inhibition at 10 µM. The test is classed as cell membranes, Rattus norvegicus, Wistar, Cerebral cortex, Membrane.
In the next test the target is Insulin receptor (Rattus norvegicus, UniProt P15127). Format: cell membranes, Wistar, Liver, Membrane. Further: in other assays of this panel Not Active means under 50% inhibition at 10 µM.
Test [4] concerns the target T2, Cholecystokinin receptor type A (Homo sapiens, UniProt P32238). Further: in other assays of this panel Not Active means under 50% inhibition at 10 µM.
T2 sequence (P32238 whole entry): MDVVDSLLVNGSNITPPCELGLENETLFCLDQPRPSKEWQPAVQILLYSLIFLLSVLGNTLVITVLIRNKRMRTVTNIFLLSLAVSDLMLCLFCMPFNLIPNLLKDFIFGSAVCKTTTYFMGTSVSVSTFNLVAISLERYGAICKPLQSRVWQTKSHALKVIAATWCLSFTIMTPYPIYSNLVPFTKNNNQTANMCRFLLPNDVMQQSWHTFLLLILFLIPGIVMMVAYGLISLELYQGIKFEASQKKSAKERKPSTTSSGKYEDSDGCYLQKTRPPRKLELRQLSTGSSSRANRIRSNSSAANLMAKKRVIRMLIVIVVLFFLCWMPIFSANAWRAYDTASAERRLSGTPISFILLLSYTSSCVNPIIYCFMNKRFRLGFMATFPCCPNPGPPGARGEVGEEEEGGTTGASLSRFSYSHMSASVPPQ
Format: cell membranes, Membrane. As to conditions: 1321-n1.

In test [5] the target is Delta-type opioid receptor (Homo sapiens, UniProt P41143). Format: cell membranes, HEK293, Membrane. The settings on record: hek293. Further: in other assays of this panel Not Active means under 50% inhibition at 10 µM.
Test [6] addresses Epidermal growth factor receptor (Homo sapiens, UniProt P00533). Kind of test: DRUGMATRIX: Protein Tyrosine Kinase, EGF Receptor enzyme inhibition (substrate: Poly(Glu:Tyr)). Format: cell-based, Insect cells. The settings on record: insect cells; Not Active = under 50% inhibition at 10 µM.

Chain of Insulin receptor (P15127 27-759 limits assumed): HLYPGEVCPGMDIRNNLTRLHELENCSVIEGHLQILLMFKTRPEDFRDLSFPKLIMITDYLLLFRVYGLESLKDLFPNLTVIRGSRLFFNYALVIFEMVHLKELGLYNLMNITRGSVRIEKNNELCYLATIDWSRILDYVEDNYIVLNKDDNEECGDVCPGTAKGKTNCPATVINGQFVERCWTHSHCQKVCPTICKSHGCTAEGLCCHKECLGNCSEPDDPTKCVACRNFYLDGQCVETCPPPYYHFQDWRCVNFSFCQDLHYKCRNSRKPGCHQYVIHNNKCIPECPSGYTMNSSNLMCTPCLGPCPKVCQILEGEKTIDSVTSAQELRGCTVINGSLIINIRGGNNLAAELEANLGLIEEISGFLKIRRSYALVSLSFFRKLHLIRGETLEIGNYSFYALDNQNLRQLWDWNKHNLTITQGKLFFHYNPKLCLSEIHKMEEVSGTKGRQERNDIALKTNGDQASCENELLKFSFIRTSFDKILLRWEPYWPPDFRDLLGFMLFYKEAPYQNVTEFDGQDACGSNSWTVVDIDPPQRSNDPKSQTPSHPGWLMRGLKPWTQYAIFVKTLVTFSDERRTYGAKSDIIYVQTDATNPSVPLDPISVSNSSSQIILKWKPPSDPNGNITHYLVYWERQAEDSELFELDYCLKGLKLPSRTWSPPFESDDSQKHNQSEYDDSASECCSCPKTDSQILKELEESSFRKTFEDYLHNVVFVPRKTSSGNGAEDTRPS
Chain of Insulin receptor (P15127 764-1383 limits assumed): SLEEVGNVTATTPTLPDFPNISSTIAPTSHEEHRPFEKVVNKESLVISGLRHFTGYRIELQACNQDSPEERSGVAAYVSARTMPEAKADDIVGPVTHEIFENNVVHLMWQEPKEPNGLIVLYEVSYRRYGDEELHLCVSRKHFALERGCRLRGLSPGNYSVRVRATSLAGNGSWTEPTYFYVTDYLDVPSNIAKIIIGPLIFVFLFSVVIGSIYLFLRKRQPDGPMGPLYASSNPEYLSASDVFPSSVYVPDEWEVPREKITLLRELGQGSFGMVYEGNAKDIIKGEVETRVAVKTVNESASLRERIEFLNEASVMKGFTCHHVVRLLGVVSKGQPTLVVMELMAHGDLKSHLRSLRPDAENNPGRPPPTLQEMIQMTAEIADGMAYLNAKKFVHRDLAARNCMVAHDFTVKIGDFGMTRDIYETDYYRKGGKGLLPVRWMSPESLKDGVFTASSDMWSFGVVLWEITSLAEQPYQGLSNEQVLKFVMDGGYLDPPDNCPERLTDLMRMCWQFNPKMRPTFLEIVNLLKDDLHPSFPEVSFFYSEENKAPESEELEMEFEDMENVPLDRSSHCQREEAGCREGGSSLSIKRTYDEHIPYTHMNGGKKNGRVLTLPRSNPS
Chain of Delta-type opioid receptor (P41143 whole entry): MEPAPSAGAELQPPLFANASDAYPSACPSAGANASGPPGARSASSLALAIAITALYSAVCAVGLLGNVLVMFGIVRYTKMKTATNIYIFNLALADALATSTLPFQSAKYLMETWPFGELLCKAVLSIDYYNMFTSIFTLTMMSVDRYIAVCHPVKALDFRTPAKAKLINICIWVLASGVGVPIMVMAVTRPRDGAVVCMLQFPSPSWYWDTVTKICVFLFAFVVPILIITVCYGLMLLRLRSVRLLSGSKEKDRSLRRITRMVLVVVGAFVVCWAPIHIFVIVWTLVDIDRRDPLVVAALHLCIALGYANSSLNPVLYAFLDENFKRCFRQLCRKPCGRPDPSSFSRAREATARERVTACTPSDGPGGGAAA
Chain of Epidermal growth factor receptor (P00533 whole entry): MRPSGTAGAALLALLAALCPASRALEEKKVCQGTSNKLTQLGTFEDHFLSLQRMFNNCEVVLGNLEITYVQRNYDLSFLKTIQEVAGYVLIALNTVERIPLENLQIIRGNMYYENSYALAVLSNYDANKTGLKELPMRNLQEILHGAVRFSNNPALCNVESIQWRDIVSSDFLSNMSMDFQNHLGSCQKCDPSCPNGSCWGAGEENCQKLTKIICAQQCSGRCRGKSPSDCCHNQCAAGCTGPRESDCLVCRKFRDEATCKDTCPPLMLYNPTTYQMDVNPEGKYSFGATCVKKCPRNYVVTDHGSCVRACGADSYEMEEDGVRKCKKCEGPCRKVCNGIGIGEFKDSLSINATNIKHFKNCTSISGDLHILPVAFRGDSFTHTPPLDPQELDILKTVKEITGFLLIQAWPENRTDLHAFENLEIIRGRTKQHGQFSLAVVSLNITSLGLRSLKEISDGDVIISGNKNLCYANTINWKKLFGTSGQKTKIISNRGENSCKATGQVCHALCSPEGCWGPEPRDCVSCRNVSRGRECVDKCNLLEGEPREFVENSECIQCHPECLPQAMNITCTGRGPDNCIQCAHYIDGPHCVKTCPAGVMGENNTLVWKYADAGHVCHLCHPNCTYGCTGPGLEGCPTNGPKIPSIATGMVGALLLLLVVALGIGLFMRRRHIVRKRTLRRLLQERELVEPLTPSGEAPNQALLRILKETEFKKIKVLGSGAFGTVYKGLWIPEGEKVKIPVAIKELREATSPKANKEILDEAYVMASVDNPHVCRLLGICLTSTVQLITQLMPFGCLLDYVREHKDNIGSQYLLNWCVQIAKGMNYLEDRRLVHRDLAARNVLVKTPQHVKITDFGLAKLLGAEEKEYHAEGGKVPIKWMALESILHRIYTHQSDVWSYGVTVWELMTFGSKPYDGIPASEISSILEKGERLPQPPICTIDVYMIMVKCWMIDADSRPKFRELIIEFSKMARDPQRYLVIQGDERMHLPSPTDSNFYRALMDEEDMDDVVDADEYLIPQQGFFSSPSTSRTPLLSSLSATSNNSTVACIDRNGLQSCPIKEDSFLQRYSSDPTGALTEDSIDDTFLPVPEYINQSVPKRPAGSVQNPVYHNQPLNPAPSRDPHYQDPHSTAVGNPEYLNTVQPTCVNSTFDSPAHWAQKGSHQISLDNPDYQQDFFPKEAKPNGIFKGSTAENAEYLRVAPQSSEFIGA

For `C#C[C@]1(O)CC[C@H]2[C@@H]3[C@H](C)CC4=C(CCC(=O)C4)[C@H]3CC[C@@]21C` [TIBOLONE], the IC50 result (in test [1] (hek293); in test [2]; in test [3]; against Insulin receptor; in test [4]; in test [5]) was “Not Active” throughout. Moreover, in test [6], the IC50 result is “Not Active”. Also, the Ki entry in test [2] and in test [3] was “Not Active” in each case.
Regarding `C[C@]12CCC(=O)C[C@@H]1CC[C@@H]1[C@@H]2CC[C@]2(C)[C@@H](O)CC[C@@H]12` [STANOLONE], the IC50 entry (in test [1] (hek293); in test [2]; in test [3]; against Insulin receptor; in test [4]; in test [5]) was “Not Active” in each case. Moreover, in test [6], the IC50 entry is “Not Active”. Further, the Ki entry in test [2] and in test [3] was “Not Active” each time.
For `CC(C)(C)NC[C@H](O)COc1cccc2c1CCCC2=O` [LEVOBUNOLOL], the IC50 result (in test [1] (hek293); in test [2]; in test [3]; against Insulin receptor; in test [4]; in test [5]) was “Not Active” each time. In addition, the IC50 result in test [6] is “Not Active”. Moreover, the Ki entry in test [2] and in test [3] was “Not Active” throughout.
Take `CCN1CCCC1CNC(=O)c1cc(S(N)(=O)=O)ccc1OC` (configuration not stated) [SULPIRIDE]: the IC50 entry (in test [1] (hek293); in test [2]; in test [3]; on Insulin receptor; in test [4]; in test [5]) was “Not Active” throughout. Further, the IC50 entry in test [6] is listed as “Not Active”. For the same molecule, the Ki result in test [2] and in test [3] was “Not Active” in each case.
On to `CCN(CC)C(=S)SSC(=S)N(CC)CC`, for which the IC50 entry (in test [1] (hek293); in test [2]; in test [3]; on Insulin receptor; in test [4]; in test [5]) was “Not Active” throughout. Moreover, in test [6], the IC50 entry is “Not Active”. Also, the Ki entry in test [2] and in test [3] was “Not Active” throughout.
For the molecule `OC[C@@H](O)[C@@H](O)[C@H](O)[C@H](O)CO` [MANNITOL], the IC50 entry (in test [1] (hek293); in test [2]; in test [3]; on Insulin receptor; in test [4]; in test [5]) was “Not Active” in each case. In test [6], the IC50 entry is given as “Not Active”. Moreover, the Ki result in test [2] and in test [3] was “Not Active” in each case.
As for `C[N+]1(C)[C@@H]2C[C@@H](OC(=O)[C@H](CO)c3ccccc3)C[C@H]1[C@@H]1O[C@@H]12.[Br-]` [METHSCOPOLAMINE BROMIDE], the concentration for half-maximal inhibition (IC50) entry (in test [1] (hek293); in test [2]; in test [3]; on Insulin receptor; in test [4]; in test [5]) was “Not Active” each time. Besides, in test [6], the IC50 result is listed as “Not Active”. Moreover, the Ki entry in test [2] and in test [3] was “Not Active” in each case.
On to `CCN(CC)CCNC(=O)c1cc(Cl)c(N)cc1OC` [METOCLOPRAMIDE], for which the IC50 entry in test [1] (hek293) is “Not Active”; in test [2] (read-out: IC50), 708 nM; in test [3], “Not Active”; against Insulin receptor, “Not Active”; in test [4] it was “Not Active”; in test [5], “Not Active”. Moreover, the IC50 result in test [6] was “Not Active”. Also, the Ki was 472 nM in test [2] (read-out: Ki) and “Not Active” in test [3].
Take `CC(=O)O[C@]1(C(C)=O)CC[C@H]2[C@@H]3C[C@H](C)C4=CC(=O)CC[C@]4(C)[C@H]3CC[C@@]21C` [MEDROXYPROGESTERONE ACETATE]: the IC50 result (in test [1] (hek293); in test [2]; in test [3]; at Insulin receptor; in test [4]; in test [5]) was “Not Active” each time. Moreover, in test [6], the 50% inhibitory concentration (IC50) entry is given as “Not Active”. The Ki entry in test [2] and in test [3] was “Not Active” throughout.
Regarding `Cc1ccnc(NS(=O)(=O)c2ccc(N)cc2)n1` [SULFAMERAZINE], the 50% inhibitory concentration (IC50) entry (in test [1] (hek293); in test [2]; in test [3]; on Insulin receptor; in test [4]; in test [5]) was “Not Active” throughout. Besides, the IC50 entry in test [6] is listed as “Not Active”. Also, the Ki result in test [2] and in test [3] was “Not Active” each time.
Turning to `O=C(c1ccccc1)c1ccc2n1CCC2C(=O)O` (configuration not stated) [KETOROLAC], the IC50 result (in test [1] (hek293); in test [2]; in test [3]; against Insulin receptor; in test [4]; in test [5]) was “Not Active” throughout. In addition, the IC50 result in test [6] is given as “Not Active”. The Ki entry in test [2] and in test [3] was “Not Active” throughout.
Take `Cc1nnc(NS(=O)(=O)c2ccc(N)cc2)s1` [SULFAMETHIZOLE]: the IC50 result (in test [1] (hek293); in test [2]; in test [3]; at Insulin receptor; in test [4]; in test [5]) was “Not Active” in each case. The IC50 entry in test [6] is reported as “Not Active”. The Ki entry in test [2] and in test [3] was “Not Active” throughout.
For `CCC(C)(C)C(=O)O[C@H]1C[C@@H](C)C=C2C=C[C@H](C)[C@H](CC[C@@H]3C[C@@H](O)CC(=O)O3)[C@H]21` [SIMVASTATIN], the IC50 result (in test [1] (hek293); in test [2]; in test [3]; against Insulin receptor; in test [4]; in test [5]) was “Not Active” in each case. Further, the IC50 result in test [6] is “Not Active”. For the same molecule, the Ki entry in test [2] and in test [3] was “Not Active” each time.
Take `Oc1ccc(/C=C/c2cc(O)cc(O)c2)cc1` [RESVERATROL]: the IC50 result (in test [1] (hek293); in test [2]; in test [3]; at Insulin receptor; in test [4]; in test [5]) was “Not Active” each time. Moreover, in test [6], the IC50 entry was “Not Active”. Besides, the Ki entry in test [2] and in test [3] was “Not Active” each time.
Take `O=C1CC[C@@]2(O)[C@H]3Cc4ccc(O)c5c4[C@@]2(CCN3CC2CC2)[C@H]1O5` [NALTREXONE]: the IC50 result (in test [1] (hek293); in test [2]; in test [3]; on Insulin receptor; in test [4]; in test [6]) was “Not Active” throughout. Further, the Ki entry in test [2] and in test [3] was “Not Active” throughout.
Turning to `CNCCCC12CCC(c3ccccc31)c1ccccc12` [MAPROTILINE], the IC50 in test [1] (read-out: IC50) was 397 nM; against Insulin receptor, “Not Active”; in test [4] it was “Not Active”; in test [5], “Not Active”; in test [6], “Not Active”. In addition, the Ki in test [1] amounted to 195 nM.
On to `CN(C)CCC=C1c2ccccc2COc2ccccc21` [DOXEPIN], for which the IC50 is 118 nM in test [1] (read-out: IC50), “Not Active” against Insulin receptor, “Not Active” in test [5] and “Not Active” in test [6]. Besides, the Ki in test [1] came out at 58 nM.
As for `COC(=O)Nc1nc2ccc(C(=O)c3ccccc3)cc2[nH]1` [MEBENDAZOLE], the 50% inhibitory concentration (IC50) result (in test [1] (hek293); in test [2]; in test [3]; against Insulin receptor; in test [4]; in test [5]) was “Not Active” throughout. Further, the Ki entry in test [2] and in test [3] was “Not Active” each time.
As for `Cc1cc2c(s1)Nc1ccccc1N=C2N1CCN(C)CC1` [OLANZAPINE], the IC50 entry (against Insulin receptor; in test [4]; in test [5]; in test [6]) was “Not Active” each time.
